Results published in patent publication US20100035926A1, “PYRAZOLE DERIVATIVES AS NON-STEROIDAL GLUCOCORTICOID RECEPTOR LIGANDS” (priority 2006, published 2010).

How the values were obtained:
glucocorticoid receptor = target: T1, glucocorticoid receptor (Homo sapiens, UniProt P04150); assay: Glucocorticoid Receptor Binding Assay (fluorescence polarisation, displacement of Alexa 555 labelled dexamethasone derivative); conditions: at least once in this assay; read-out: glucocorticoid binding pIC50 (converted)
T1 construct: a partially purified full length glucocorticoid receptor
T1 sequence (P04150 1-777): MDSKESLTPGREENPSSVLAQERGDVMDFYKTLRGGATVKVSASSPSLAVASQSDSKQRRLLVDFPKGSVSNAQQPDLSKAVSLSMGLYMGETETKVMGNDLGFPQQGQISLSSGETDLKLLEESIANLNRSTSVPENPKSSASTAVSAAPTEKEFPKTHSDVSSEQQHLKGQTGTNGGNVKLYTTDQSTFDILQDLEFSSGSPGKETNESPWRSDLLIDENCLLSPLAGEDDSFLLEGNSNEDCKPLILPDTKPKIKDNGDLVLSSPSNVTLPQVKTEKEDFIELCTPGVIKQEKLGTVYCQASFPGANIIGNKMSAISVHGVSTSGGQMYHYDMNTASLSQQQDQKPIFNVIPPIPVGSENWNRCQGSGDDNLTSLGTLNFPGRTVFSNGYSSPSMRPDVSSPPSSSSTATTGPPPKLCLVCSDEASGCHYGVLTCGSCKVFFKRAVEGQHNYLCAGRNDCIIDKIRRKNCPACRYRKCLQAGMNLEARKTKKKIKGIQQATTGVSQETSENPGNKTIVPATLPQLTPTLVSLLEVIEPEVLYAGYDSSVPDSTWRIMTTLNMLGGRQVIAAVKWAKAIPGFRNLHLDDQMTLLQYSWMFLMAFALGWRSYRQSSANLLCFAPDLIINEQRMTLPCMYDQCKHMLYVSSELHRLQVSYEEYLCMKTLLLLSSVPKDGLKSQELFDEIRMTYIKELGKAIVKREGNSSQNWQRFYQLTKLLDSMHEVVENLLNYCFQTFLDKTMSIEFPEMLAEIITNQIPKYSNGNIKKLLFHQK
Method in brief: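 Partially purified full-length GR incubated with test compound and fluorescent dexamethasone plus GR-stabilising buffer components, 2 hr at room temperature in the dark. Binding scored as displacement of tracer, read as decrease in fluorescence polarisation.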

GR = target: T2, GR (Homo sapiens, UniProt P04150); assay: GR Agonist Assay - MMTV Assay (A549 MMTV cells, renilla luciferase reporter); type: cell-based; conditions: 6 h, agonists, read-out: average maximum asymptote in the MMTV agonist assay
T2 construct: endogenous in cells; host or cells: A549 (human lung carcinoma, ECACC No. 86012804), stably transfected with reporter plasmids only
T2 sequence (P04150 1-777): T1 sequence (P04150 1-777)
Method in brief: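 Stably transfected A549 MMTV cells carry a GR-driven luciferase reporter. Cells at 0.1×10^6/ml in DMEM with 10% FCS and 25 mM HEPES were added to wells containing compound. After detection reagent, plates were held about 15 mins at room temperature and luminescence was read.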

Progesterone Receptor = target: T3, Progesterone Receptor (Homo sapiens, UniProt P06401); assay: Assay for Progesterone Receptor Agonist Activity (CV-1 cells, PRb-BacMam, MMTV-BacMam); type: cell-based; conditions: at least once in this assay, read-out: progesterone receptor agonist pEC50 (converted)
T3 construct: expressed in transfected cells; host or cells: CV-1 cells transduced with PRb-BacMam and MMTV-BacMam
T3 sequence (P06401 1-933): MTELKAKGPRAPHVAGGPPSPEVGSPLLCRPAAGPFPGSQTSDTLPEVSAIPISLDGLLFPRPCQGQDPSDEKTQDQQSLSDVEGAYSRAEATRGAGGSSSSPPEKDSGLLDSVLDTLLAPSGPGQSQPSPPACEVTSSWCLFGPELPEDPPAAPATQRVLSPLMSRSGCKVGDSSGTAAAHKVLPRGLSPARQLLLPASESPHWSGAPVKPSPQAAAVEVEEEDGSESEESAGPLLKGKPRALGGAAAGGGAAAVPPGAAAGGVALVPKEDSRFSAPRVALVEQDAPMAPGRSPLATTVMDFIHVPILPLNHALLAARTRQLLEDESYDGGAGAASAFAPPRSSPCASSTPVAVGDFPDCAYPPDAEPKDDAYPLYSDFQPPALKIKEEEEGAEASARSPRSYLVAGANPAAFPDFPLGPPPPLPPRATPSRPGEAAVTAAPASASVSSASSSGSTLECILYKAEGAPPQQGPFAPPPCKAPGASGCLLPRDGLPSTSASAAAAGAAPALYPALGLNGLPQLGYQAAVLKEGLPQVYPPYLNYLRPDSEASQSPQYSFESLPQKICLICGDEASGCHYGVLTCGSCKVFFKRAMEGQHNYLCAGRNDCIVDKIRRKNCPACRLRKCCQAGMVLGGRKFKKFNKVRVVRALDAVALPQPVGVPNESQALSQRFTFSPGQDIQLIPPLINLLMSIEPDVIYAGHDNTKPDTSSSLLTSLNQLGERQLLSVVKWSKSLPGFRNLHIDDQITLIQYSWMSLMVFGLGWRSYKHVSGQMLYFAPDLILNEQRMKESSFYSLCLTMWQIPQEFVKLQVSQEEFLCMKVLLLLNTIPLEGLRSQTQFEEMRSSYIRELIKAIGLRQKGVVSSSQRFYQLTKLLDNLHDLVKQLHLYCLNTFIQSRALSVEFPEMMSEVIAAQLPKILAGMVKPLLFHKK

Structure (SMILES) | IC50 (glucocorticoid receptor) [nM] | Emax (GR) [%] | EC50 (Progesterone Receptor) [nM]
Nc1c(C(=O)NCC(O)(CN(CCF)C(=O)c2ccccc2)C(F)(F)F)cnn1-c1ccc(F)cc1 (racemic) [Example 1 (racemic), 5-Amino-1-(4-fluorophenyl)-N-(3,3,3-trifluoro-2-{[(2-fluoroethyl)(phenylcarbonyl)amino]methyl}-2-hydroxypropyl)-1H-pyrazole-4-carboxamide] | < 1000 | ≥ 40 | > 1000
Nc1c(C(=O)NCC(O)(CN(CCF)C(=O)c2ccccc2F)C(F)(F)F)cnn1-c1ccc(F)cc1 (racemic) [Example 2 (racemic), 5-Amino-1-(4-fluorophenyl)-N-[3,3,3-trifluoro-2-([(2-fluoroethyl)[(2-fluorophenyl)carbonyl]amino]methyl)-2-hydroxypropyl]-1H-pyrazole-4-carboxamide] | < 1000 | ≥ 40 | > 1000
CCN(CC(O)(CNC(=O)c1cnn(-c2ccc(F)cc2)c1N)C(F)(F)F)C(=O)c1cccc(F)c1F (racemic) [Example 5 (racemic), 5-Amino-N-(2-{[[(2,3-difluorophenyl)carbonyl](ethyl)amino]methyl}-3,3,3-trifluoro-2-hydroxypropyl)-1-(4-fluorophenyl)-1H-pyrazole-4-carboxamide] | < 1000 | ≥ 40 | > 1000
